Measurements taken from US5576341A, “2-[[2-(N-isobutyl-N-methyl)amino]benzylsulfinyl]-benzimidazole as antimicrobial agent” (Nippon Chemiphar Co., Ltd., priority 1993, dated 1996).
In brackets after ≈: the same amount, converted by molar mass.

Key:
[1] = tested on: Helicobacter pylori ATCC 43526; experiment: MIC by agar plate dilution method (Experimental 2), ATCC 43526; settings: ATCC43526, 144 h
[2] = tested on: Helicobacter pylori ATCC 43579; experiment: MIC by agar plate dilution method (Experimental 2), ATCC 43579; settings: ATCC43579, 144 h
[3] = tested on: Helicobacter pylori ATCC 43629; experiment: MIC by agar plate dilution method (Experimental 2), ATCC 43629; settings: ATCC43629, 144 h
Helicobacter pylori [4] = experiment: microbe, parasite or virus in culture; settings: 144 h, read-out: MIC (minimal inhibitory concentration)
[5] = tested on: Helicobacter pylori NCTC 11637; experiment: MIC by agar plate dilution method (Experimental 2), NCTC 11637; settings: NCTC11637, 144 h
[6] = tested on: Helicobacter pylori Wild 1; experiment: MIC by agar plate dilution method (Experimental 2), Wild 1 (first line); settings: WILD1, 144 h
[7] = tested on: Helicobacter pylori Wild 1; experiment: MIC by agar plate dilution method (Experimental 2), Wild 1; settings: WILD1, 144 h
Helicobacter pylori [8] = settings: Antimicrobial Agents and Chemotherapy, March 1991, p.490-496; cited from earlier work

SMILES | MIC [1] | MIC [2] | MIC [3] | MIC (Helicobacter pylori [4]) | MIC [5] | MIC [6] | MIC [7] | antimicrobial activity against Helicobacter pylori (in words) (Helicobacter pylori [8])
CC(C)CN(C)c1ccccc1C[S+]([O-])c1nc2ccccc2[nH]1 (stereo not drawn) [Compound (1), 2-[[2-(N-isobutyl-N-methyl)amino]benzylsulfinyl]benzimidazole] | 25 µg/mL (≈ 73.2 µM) | 25 µg/mL (≈ 73.2 µM) | 12.5 µg/mL (≈ 36.6 µM) | 12.5 µg/mL (≈ 36.6 µM) | 25 µg/mL (≈ 73.2 µM) | 50 µg/mL (≈ 146 µM) | 50 µg/mL (≈ 146 µM) | 
COc1ccc2[nH]c([S+]([O-])Cc3ncc(C)c(OC)c3C)nc2c1 (stereo not drawn) [Omeprazole] | 12.5 µg/mL (≈ 36.2 µM) | 12.5 µg/mL (≈ 36.2 µM) | 12.5 µg/mL (≈ 36.2 µM) |  | 50 µg/mL (≈ 145 µM) | 50 µg/mL (≈ 145 µM) | 50 µg/mL (≈ 145 µM) | have antimicrobial activity against Helicobacter pylori
Cc1c(OCC(F)(F)F)ccnc1C[S+]([O-])c1nc2ccccc2[nH]1 (stereo not drawn) [lansoprazole] |  |  |  |  |  |  |  | have antimicrobial activity against Helicobacter pylori

The next lines start with results.

MIC [1] | MIC [2] | MIC [3] | MIC (Helicobacter pylori [4]) | MIC [5] | MIC [6] | MIC [7] | SMILES | antimicrobial activity against Helicobacter pylori (in words) (Helicobacter pylori [8])
800 µg/mL (≈ 3170 µM) | 800 µg/mL (≈ 3170 µM) | 800 µg/mL (≈ 3170 µM) |  |  |  |  | CN/C(=N/CCSCc1nc[nH]c1C)NC#N [Cimetidine] | 
> 800 µg/mL | 800 µg/mL (≈ 2370 µM) | 800 µg/mL (≈ 2370 µM) |  |  |  |  | NC(N)=Nc1nc(CSCCC(N)=NS(N)(=O)=O)cs1 [Famotidine] | 
